≈ marks a conversion by molar mass, not a printed value.
Tests used:
[1] = test system: Pyricularia orzae; test: whole plant or invertebrate; type: in vivo, Pyricularia orzae (rice plant, Chukyo Asahi); settings: in Oryza sativa, 120 h, read-out: Protective value
[2] = test system: Rhizoctonia solani; test: whole plant or invertebrate; type: in vivo, Rhizoctonia solani (rice plant, Chukyo Asahi); settings: in Oryza sativa, 120 h, read-out: Preventive value
[3] = test system: Collectotrichum lagenarium; test: Test 3: protective value on cucumber inoculated with Collectotrichum lagenarium; type: in vivo, Collectotrichum lagenarium (cucumber plant, Suyo); settings: 500 ppm, 10 ml sprayed; lesions six days after inoculation
Description: In each unglazed pot having a diameter of 9 cm, cucumber plant (Suyo) was cultured. At one leaf stage, 10 ml. of each solution of each active ingredient having a concentration of 500 ppm was sprayed by a spray gun. After maintaining the pot in a green-house at 24° to 25° C. for one day, each spore suspension of Collectotrichum lagenarium was sprayed. Six days after the inoculation, number of lesions on the first leaf of seedling was observed. The protective value was calculated as Test 1.

[4] = test system: Phytophthora infestans; type: cell-based; settings: PDA medium; fungus A: Phytophthora infestans
[5] = test system: Alternaria solani; test: Test 5: minimum growth inhibition concentration on PDA medium; type: cell-based; settings: fungus C: Alternaria solani
Description: (§1) A mixture of 9 ml. of a potato-glucose-agar medium (PDA medium) and 1 ml. of each active ingredient was poured into each Petri-dish to be solidified. […] The following fungi were used.

[6] = test system: Diaporthe citri; test: as above; type: cell-based; settings: fungus B: Diaporthe citri
Description: as §1

[7] = test system: Venturia inaequalie; test: as above; type: cell-based; settings: fungus D: Venturia inaequalie
Description: as §1

[8] = test system: Plasmopara viticola; test: whole plant or invertebrate; type: in vivo, Plasmopara viticola (cucumber plant, Suyo); settings: in Cucumis sativus, 144 h, read-out: Protective value
[9] = test system: Sphaerotheca fuliginea; test: whole plant or invertebrate; type: in vivo, Sphaerotheca fuliginea (cucumber plant, Suyo); settings: Podosphaera fuliginea, in Cucumis sativus, 240 h; read-out: Protective value
[10] = test system: Aspergillum flavus IFO 6343; test: Test 8: MIC by agar dilution process; type: cell-based; settings: 168 h; Sabouraud's agar medium; 1 week
Description: (§2) Each minimum growth inhibition concentration (MIC) of Compound No. 16 to various microorganisms was measured by the agar dilution process. In the cases of bacteria, the results were observed 24 hours after the inoculation and in the cases of fungi, the results were observed 1 week after the inoculation.

[11] = test system: Aspergillum fumigatus IFO 4057; test: Test 8: MIC by agar dilution process; type: cell-based; settings: 168 h; Sabouraud's agar medium; 1 week
Description: as §2

[12] = test system: Aspergillum niger IFO 6341; test: Test 8: MIC by agar dilution process; type: cell-based; settings: 168 h; Sabouraud's agar medium; 1 week
Description: as §2

[13] = test system: Aureobasidium pullulans IFO 6353; test: Test 8: MIC by agar dilution process; type: cell-based; settings: IFO6353, 168 h, Sabouraud's agar medium, 1 week
Description: as §2

[14] = test system: Bacillus subtilis PC1219; test: Test 8: MIC by agar dilution process; type: cell-based; settings: Bouillon agar medium, 24 hours
Description: as §2

[15] = test system: Chaetomium globosum IFO 6347; test: Test 8: MIC by agar dilution process; type: cell-based; settings: IFO6347, 168 h, Sabouraud's agar medium, 1 week
Description: as §2

[16] = test system: Escherichia coli; test: Test 8: MIC by agar dilution process; type: cell-based; settings: Bouillon agar medium, 24 hours
Description: as §2

[17] = test system: Gibberella fujikuroi IFO 6349; test: Test 8: MIC by agar dilution process; type: cell-based; settings: Fusarium fujikuroi, IFO6349, 168 h; Sabouraud's agar medium; 1 week
Description: as §2

[18] = test system: Gliocladium virens IFO 9166; test: Test 8: MIC by agar dilution process; type: cell-based; settings: Trichoderma virens, IFO9166, 168 h; Sabouraud's agar medium; 1 week
Description: as §2

[19] = test system: Klebsiella pneumoniae IFO 3512; test: Test 8: MIC by agar dilution process; type: cell-based; settings: IFO3512, Bouillon agar medium, 24 hours
Description: as §2

[20] = test system: Myrothecium verrucaria IFO 6133; test: Test 8: MIC by agar dilution process; type: cell-based; settings: Albifimbria verrucaria, IFO6133, 168 h; Sabouraud's agar medium; 1 week
Description: as §2

[21] = test system: Penicillium chrysogeum IFO 4626; test: Test 8: MIC by agar dilution process; type: cell-based; settings: IFO4626, 168 h, Sabouraud's agar medium, 1 week
Description: as §2

[22] = test system: Penicillium citrium IFO 6352; test: Test 8: MIC by agar dilution process; type: cell-based; settings: IFO6352, 168 h, Sabouraud's agar medium, 1 week
Description: as §2

[23] = test system: Penicillium funiculosum IFO 6354; test: Test 8: MIC by agar dilution process; type: cell-based; settings: Talaromyces funiculosus, IFO6354, 168 h; Sabouraud's agar medium; 1 week
Description: as §2

[24] = test system: Penicillium italicum; test: Test 8: MIC by agar dilution process; type: cell-based; settings: 168 h, Sabouraud's agar medium, 1 week
Description: as §2

[25] = test system: Proteus morganii IFO 3848; test: Test 8: MIC by agar dilution process; type: cell-based; settings: Morganella morganii, IFO3848; Bouillon agar medium; 24 hours
Description: as §2

[26] = test system: Pseudomonas aeruginosa; test: Test 8: MIC by agar dilution process; type: cell-based; settings: Bouillon agar medium, 24 hours
Description: as §2

[27] = test system: Salmonella typhimurium IFO 12529; test: Test 8: MIC by agar dilution process; type: cell-based; settings: Salmonella enterica; Bouillon agar medium; 24 hours
Description: as §2

[28] = test system: Serratia marcescens IFO 12648; test: Test 8: MIC by agar dilution process; type: cell-based; settings: IFO12648, Bouillon agar medium, 24 hours
Description: as §2

[29] = test system: Staphylococcus aureus 209P; test: Test 8: MIC by agar dilution process; type: cell-based; settings: Bouillon agar medium, 24 hours
Description: as §2

[30] = test system: Trametes sanguinea; test: Test 8: MIC by agar dilution process; type: cell-based; settings: 168 h, Sabouraud's agar medium, 1 week
Description: as §2

[31] = test system: Botrytis cinerea; test: Test 9: protective value on cucumber inoculated with Botrytis cinerea; type: in vivo, Botrytis cinerea (cucumber plant, Suyo); settings: 72 h; for pest or weed control at 250 ppm: 10 ml sprayed, lesion length three days after inoculation
Description: In each unglazed pot having a diameter of 9 cm, cucumber plant (Suyo) was cultured. At one leaf stage, 10 ml. of each solution of each active ingredient having a concentration of 250 ppm was sprayed by a spray gun. After maintaining the pot in a green-house at 24° to 25° C. for one day, a disc (punched agar disc) obtained by culturing Botrytis cinerea on a potato-glucose-agar medium (PDA medium) was put on the leaf of cucumber to inoculate them. Three days after the inoculation, lengths of lesions were measured and each protective value was calculated as Test 2.
In accordance with the test, except the concentration of the active ingredient was decreased, the comparative tests of Compound No. 7 and Reference compound were carried out.

[32] = test system: Plutella xylostella; test: Test 11: mortality of larvae of Plutella xylostella on treated cabbage leaf; type: in vivo; settings: foliar, 192 h, leaf dipped, emulsifiable concentrate Composition No. 3, eight days, read-out: Percent mortality
Text: Each emulsifiable concentrate of each active ingredient as Composition No. 3 was dispersed in water at a concentration of 800 ppm. Each leaf of cabbage was dipped into each emulsion for about 10 seconds and taken up and dried in air.
A wet filter paper was put in each Petri dish (diameter of 9 cm), and each treated leaf was put on the filter paper. Larvae of Plutella xylostella at 2nd to 3rd instar were charged and the dish was covered with a cap and kept in a constant temperature chamber with lighting at 28° C. Eight days after the charge, mortality was measured and each percent mortality was calculated.

## O=[N+]([O-])c1cc(C(F)(F)F)c(Cl)c([N+](=O)[O-])c1Nc1ncc(Cl)cc1Cl [compound 4, N-(3,5-dichloro-2-pyridyl)-2,6-dinitro-3-chloro-4-trifluoromethylaniline]
[1]
  pest or weed control at 100 ppm: 100%
[2]
  pest or weed control at 100 ppm: 93%
[3]
  Protective value: 100%
[4]
  minimum growth inhibition concentration: > 100
[5]
  minimum growth inhibition concentration: 100
[6]
  minimum growth inhibition concentration: 100
[7]
  minimum growth inhibition concentration: < 1
[8]
  pest or weed control at 500 ppm: 100%

## O=[N+]([O-])c1cc(C(F)(F)F)c(Cl)c([N+](=O)[O-])c1Nc1c(Cl)cncc1Cl [Compound No. 16]
[1]
  pest or weed control at 100 ppm: 100%
[2]
  pest or weed control at 100 ppm: 100%
[9]
  pest or weed control at 500 ppm: 100%
[10]
  MIC: 6.25 µg/mL (≈ 14.5 µM)
[11]
  MIC: 6.25 µg/mL (≈ 14.5 µM)
[12]
  MIC: 3.12 µg/mL (≈ 7.23 µM)
[13]
  MIC: 6.25 µg/mL (≈ 14.5 µM)
[14]
  MIC: < 0.2 µg/mL
[15]
  MIC: 3.12 µg/mL (≈ 7.23 µM)
[16]
  MIC: 12.5 µg/mL (≈ 29 µM)
[17]
  MIC: 12.5 µg/mL (≈ 29 µM)
[18]
  MIC: 12.5 µg/mL (≈ 29 µM)
[19]
  MIC: 12.5 µg/mL (≈ 29 µM)
[20]
  MIC: 6.25 µg/mL (≈ 14.5 µM)
[21]
  MIC: 3.12 µg/mL (≈ 7.23 µM)
[22]
  MIC: 6.25 µg/mL (≈ 14.5 µM)
[23]
  MIC: 6.25 µg/mL (≈ 14.5 µM)
[24]
  MIC: 3.12 µg/mL (≈ 7.23 µM)
[25]
  MIC: 6.25 µg/mL (≈ 14.5 µM)
[26]
  MIC: 12.5 µg/mL (≈ 29 µM)
[27]
  MIC: 6.25 µg/mL (≈ 14.5 µM)
[28]
  MIC: 6.25 µg/mL (≈ 14.5 µM)
[29]
  MIC: < 0.2 µg/mL
[30]
  MIC: 6.25 µg/mL (≈ 14.5 µM)
[31]
  pest or weed control at 250 ppm: 100%

## Cc1nc(Nc2c([N+](=O)[O-])cc(C(F)(F)F)c(Cl)c2[N+](=O)[O-])c(Cl)cc1Cl [compound 8, N-(3,5-dichloro-6-methyl-2-pyridyl)2,6-dinitro-3-chloro-4-trifluoromethylaniline]
[1]
  pest or weed control at 100 ppm: 100%
[2]
  pest or weed control at 100 ppm: 90%
[3]
  Protective value: 100%

## O=[N+]([O-])c1cc(C(F)(F)F)c(Cl)c([N+](=O)[O-])c1Nc1ncc(C(F)(F)F)cc1Cl [Compound No. 7, N-(3-chloro-5-trifluoromethyl-2-pyridyl)-2,6-dinitro-3-chloro-4-trifluoromethylaniline]
[1]
  pest or weed control at 12.5 ppm: 98%
  pest or weed control at 25 ppm: 100%
  pest or weed control at 100 ppm: 100%
[2]
  pest or weed control at 100 ppm: 100%
[3]
  Protective value: 100%
[9]
  pest or weed control at 500 ppm: 100%
[4]
  minimum growth inhibition concentration: 100
[5]
  minimum growth inhibition concentration: < 1
[6]
  minimum growth inhibition concentration: < 1
[7]
  minimum growth inhibition concentration: < 1
[31]; 62.5 ppm
  pest or weed control at 62.5 ppm: 100%
[31]
  pest or weed control at 250 ppm: 100%
[8]
  pest or weed control at 500 ppm: 100%
[32]
  mortality at 800 ppm: 100%

## O=[N+]([O-])c1cc(C(F)(F)F)c(Cl)c([N+](=O)[O-])c1Nc1ncc(Br)cc1Cl [compound 20]
[1]
  pest or weed control at 100 ppm: 100%
[8]
  pest or weed control at 500 ppm: 100%

## O=[N+]([O-])c1cc(C(F)(F)F)c(Cl)c([N+](=O)[O-])c1Nc1ccc(Cl)nc1Cl [compound 14]
[1]
  pest or weed control at 100 ppm: 100%
[2]
  pest or weed control at 100 ppm: 100%
[3]
  Protective value: 100%
[9]
  pest or weed control at 500 ppm: 95%
[31]
  pest or weed control at 250 ppm: 95%

Source: US4331670A (priority 1979, dated 1982)
